The values below come from US20250368635A1, “HETEROARYL DERIVATIVE COMPOUND, AND USES THEREOF” (VORONOI, INC., priority 2022, published 2025).

A word on the GI50: it is the concentration that inhibits growth by half.

Each structure is given as a SMILES string.

The assay concerns Ba/F3 cells expressing EGFR Del19/C797S (EGFR DC). Nature of the assay: Inhibition of proliferation of Ba/F3 cells expressing EGFR Del19/C797S (CellTiter-Glo, 72 h). The assay is classed as cell-based. The settings on record: Mus musculus, BaF3, 72 hours treatment. The procedure:
The following experiment was performed to evaluate the inhibitory activity of the compounds according to the present invention on the proliferation of Ba/F3 cells expressing EGFR Del19/C797S (EGFR DC) and EGFR L858R/C797S (EGFR LC) mutations.
Ba/F3 cells were cultured using medium (RPMI-1640) containing 10% fetal bovine serum (FBS) and 5 ng/ml IL-3 (R&D Systems). The transduced Ba/F3 cells were cultured by adding 1 μg/ml puromycin (Invitrogen) to the same medium.
24 hours prior to treatment with compounds, 3,000 to 5,000 cells were seeded on a well plate (white clear bottom 96 well plate, Corning). The compounds were diluted in dimethyl sulfoxide (3-fold dilution, total of 12 concentrations) and injected at 1 μl each so that the final concentration was 0.2 nM to 5 μM. After 72 hours post treatment with compounds, living cells were stored at room temperature for 10 minutes using CellTiter-Glo luminescent cell-viability reagent (Promega), and the luminescence intensity thereof was measured using a reader (Synergy Neo, Biotek). Each test was repeated three times. The result values were calculated as a cell growth rate (%) compared to the control group. A graph was created using the GraphPad Prism version 8.3.0 program, and GI50 values were calculated.
For orientation: Cellular ATP, detected with luciferase, serves as a proxy for viable cell number.
Turning to `COc1cc(N2CC[C@@H](OC)[C@@H](F)C2)c(-c2cnn(C)c2)cc1Nc1cc(N2OCC[C@@H]2c2cccc(F)c2F)ncn1` [Example 66, 6-((R)-3-(2,3-difluorophenyl)isoxazolidin-2-yl)-N-(4-((3,4R)-3-fluoro-4-methoxypiperidin-1-yl)-2-methoxy-5-(1-methyl-1H-pyrazol-4-yl)phenyl)pyrimidin-4-amine], the GI50 was in the range of 100 to 1000 nM.

With `COc1cc(N2CC[C@H](OC)[C@H](F)C2)c(-c2cnn(C)c2)cc1Nc1cc(N2OCC[C@@H]2c2cccc(F)c2F)ncn1` [Example 67, 6-((R)-3-(2,3-difluorophenyl)isoxazolidin-2-yl)-N-(4-((3R,4S)-3-fluoro-4-methoxypiperidin-1-yl)-2-methoxy-5-(1-methyl-1H-pyrazol-4-yl)phenyl)pyrimidin-4-amine], the GI50 is less than 100 nM.

For `COc1cc(N2CCC(N3CC[C@H](OC)C3)CC2)c(-c2cnn(C)c2)cc1Nc1cc(N2OCC[C@@H]2c2cccc(F)c2F)ncn1` [Example 70, 6-((R)-3-(2,3-difluorophenyl)isoxazolidin-2-yl)-N-(2-methoxy-4-(4-((S)-3-methoxypyrrolidin-1-yl)piperidin-1-yl)-5-(1-methyl-1H-pyrazol-4-yl)phenyl)pyrimidin-4-amine], the GI50 lay within 100 to 1000 nM.

`COc1cc(N2CCC(N3CC[C@H](F)C3)CC2)c(-c2cnn(C)c2)cc1Nc1cc(N2OCC[C@@H]2c2cccc(F)c2F)ncn1` [Example 71, 6-((R)-3-(2,3-difluorophenyl)isoxazolidin-2-yl)-N-(4-(4-((S)-3-fluoropyrrolidin-1-yl)piperidin-1-yl)-2-methoxy-5-(1-methyl-1H-pyrazol-4-yl)phenyl)pyrimidin-4-amine]: the GI50 was 100 to 1000 nM.

Regarding `COc1cc(N2CCC(N3CCOC(C(F)(F)F)C3)CC2)c(-c2cnn(C)c2)cc1Nc1cc(N2OCC[C@@H]2c2cccc(F)c2F)ncn1` (stereo partly drawn) [Example 73, 6-((R)-3-(2,3-difluorophenyl)isoxazolidin-2-yl)-N-(2-methoxy-5-(1-methyl-1H-pyrazol-4-yl)-4-(4-(2-(trifluoromethyl)morpholino)piperidin-1-yl)phenyl)pyrimidin-4-amine], the GI50 is 100 to 1000 nM.

Regarding `COc1cc(N2CCN(C)CC2)c(-c2ccoc2)cc1Nc1cc(N2OCC[C@@H]2c2cccc(F)c2F)ncn1` [Example 75, (R)-6-(3-(2,3-difluorophenyl)isoxazolidin-2-yl)-N-(5-(furan-3-yl)-2-methoxy-4-(4-methylpiperazin-1-yl)phenyl)pyrimidin-4-amine], the GI50 was in the range of 100 to 1000 nM.

Consider `COc1cc(N2CCN(C)CC2)c(-c2ccsc2)cc1Nc1cc(N2OCC[C@@H]2c2cccc(F)c2F)ncn1` [Example 76, (R)-6-(3-(2,3-difluorophenyl)isoxazolidin-2-yl)-N-(2-methoxy-4-(4-methylpiperazin-1-yl)-5-(thiophen-3-yl)phenyl)pyrimidin-4-amine], for which the GI50 lay in the range of 100 to 1000 nM.

For the molecule `COc1cc(N2CCN(C)CC2)c(-c2cnc3ccccc3c2)cc1Nc1cc(N2OCC[C@@H]2c2cccc(F)c2F)ncn1` [Example 78, (R)-6-(3-(2,3-difluorophenyl)isoxazolidin-2-yl)-N-(2-methoxy-4-(4-methylpiperazin-1-yl)-5-(quinolin-3-yl)phenyl)pyrimidin-4-amine], the GI50 fell in the range of 100 to 1000 nM.

For the molecule `COc1cc(N2CCN(C)CC2)c(-c2ccncc2)cc1Nc1cc(N2OCC[C@@H]2c2cccc(F)c2F)ncn1` [Example 79, (R)-6-(3-(2,3-difluorophenyl)isoxazolidin-2-yl)-N-(2-methoxy-4-(4-methylpiperazin-1-yl)-5-(pyridin-4-yl)phenyl)pyrimidin-4-amine], the GI50 fell in the range of 100 to 1000 nM.

Consider `COc1cc(N2CCC3(CC2)CN(C)CCO3)c(-c2cnn(C)c2)cc1Nc1cc(N2OCC[C@@H]2c2cccc(F)c2F)ncn1` [Example 83, (R)-6-(3-(2,3-difluorophenyl)isoxazolidin-2-yl)-N-(2-methoxy-5-(1-methyl-1H-pyrazol-4-yl)-4-(4-methyl-1-oxa-4,9-diazaspiro[5.5]undecan-9-yl)phenyl)pyrimidin-4-amine], for which the GI50 was in the range of 100 to 1000 nM.

As for `COc1cc(N2CCSCC2)c(-c2cnn(C)c2)cc1Nc1cc(N2OCC[C@@H]2c2cccc(F)c2F)ncn1` [Example 85, (R)-6-(3-(2,3-difluorophenyl)isoxazolidin-2-yl)-N-(2-methoxy-5-(1-methyl-1H-pyrazol-4-yl)-4-thiomorpholinophenyl)pyri-midin-4-amine], the GI50 was 100 to 1000 nM.

Consider `Cn1cc(-c2cc(Nc3cc(N4OCC[C@@H]4c4cccc(F)c4F)ncn3)c3c(c2N2CCOCC2)OCCO3)cn1` [Example 96, (R)-6-(3-(2,3-difluorophenyl)isoxazolidin-2-yl)-N-(7-(1-methyl-1H-pyrazol-4-yl)-8-morpholino-2,3-dihydrobenzo[b][1,4]dioxin-5-yl)pyrimidin-4-amine], for which the GI50 is 100 to 1000 nM.

On to `COc1cc(N2CCN(C)CC2)c(-c2cnn(C)c2)cc1Nc1cc(N2OCC[C@@H]2c2cccc(F)c2F)ncn1` [Example 98, (R)-6-(3-(2,3-difluorophenyl)isoxazolidin-2-yl)-N-(2-methoxy-5-(1-methyl-N-pyrazol-4-yl)-4-(4-methylpiperazin-1-yl)phenyl)pyrimidin-4-amine], for which the GI50 was less than 100 nM.

For `COc1cc(N2CCN(C)CC2)c(-c2cnn(C3CC3)c2)cc1Nc1cc(N2OCC[C@@H]2c2cccc(F)c2F)ncn1` [Example 99, (R)-N-(5-(1-cyclopropyl-1H-pyrazol-4-yl)-2-methoxy-4-(4-methylpiperazin-1-yl)phenyl)-6-(3-(2,3-difluorophenyl)isoxazolidin-2-yl)pyrimidin-4-amine], the GI50 is less than 100 nM.

With `COc1cc(N2CCC(N3CC(OC)C3)CC2)c(-c2cnn(C)c2)cc1Nc1cc(N2OCC[C@@H]2c2cccc(F)c2F)ncn1` [Example 102, (R)-6-(3-(2,3-difluorophenyl)isoxazolidin-2-yl)-N-(2-methoxy-4-(4-(3-methoxyazetidin-1-yl)piperidin-1-yl)-5-(1-methyl-1H-pyrazol-4-yl)phenyl)pyrimidin-4-amine], the GI50 is less than 100 nM.

Consider `COc1cc(N2CCC3(CC2)CCN(C(C)(C)CF)CC3)c(-c2cn(C)nc2F)cc1Nc1cc(N2OCC[C@@H]2c2ccccc2)ncn1` [Example 103, (R)-N-(5-(3-fluoro-1-methyl-1H-pyrazol-4-yl)-4-(9-(1-fluoro-2-methylpropan-2-yl)-3,9-diazaspiro[5.5]undecan-3-yl)-2-methoxyphenyl)-6-(3-phenylisoxazolidin-2-yl)pyrimidin-4-amine], for which the GI50 is less than 100 nM.

As to `CCOc1cc(N2C[C@@H](C)O[C@@H](C)C2)c(-c2cnn(C)c2)cc1Nc1cc(N2OCC[C@@H]2c2cccc(F)c2F)ncn1` [Example 104, 6-((R)-3-(2,3-difluorophenyl)isoxazolidin-2-yl)-N-(4-((25,6R)-2,6-dimethylmorpholino)-2-ethoxy-5-(1-methyl-1H-pyrazol-4-yl)phenyl)pyrimidin-4-amine], the GI50 was in the range of 100 to 1000 nM.

On to `CC(C)Oc1cc(N2C[C@H](C)O[C@@H](C)C2)c(-c2cnn(C)c2)cc1Nc1cc(N2OCC[C@@H]2c2cccc(F)c2F)ncn1` [Example 105, 6-((R)-3-(2,3-difluorophenyl)isoxazolidin-2-yl)-N--(4-((2S,6S)-2,6-dimethylmorpholino)-2-isopropoxy-5-(1-methyl-1H-pyrazol-4-yl)phenyl)pyrimidin-4-amine], for which the GI50 was 100 to 1000 nM.
